Test results: US8993626B2, “Methods of treatment using sterculic acid” (The United States of America, as represented by the …, priority 2010, dated 2015)

Tested on: ARPE-19 cells
Experiment: ELISA of secreted VEGF, IL-6, IL-8 in conditioned medium
Type: cell-based
Details: 6 μM 7KCh alone or with 1 μM fatty acid, 48 hr
Experimental: FIGS. 16A-16E depict the secreted protein levels of (A) VEGF, (B) IL-6, and (C) IL-8 were measure by ELISA 48 hr after treatment with 6 μM 7KCh, 1 μM sterculic acid, 1 μM stearic acid, or the combinations of 7KCh with either sterculic acid or stearic acid. Error bars indicate the standard deviations. *p<0.05 comparing to 7KCh, n=3. Two-tailed Student's t-test. The expressions of GRP78 and CHOP were shown by immunoblots (D) 24 hr or (E) 48 hr after treatment with 8 μM 7KCh, 1 μM sterculic acid, 1 μM stearic acid, or the combinations of 7KCh with either sterculic acid or stearic acid.
ARPE-19 cells were seeded in 24-well plates with 1×10^5 cells per well and allowed to recover for 16-24 hr. Once confluency reached approximately 90%, the effect of the fatty acids against 7KCh-mediated cell death was examined 24 hr after incubation in serum-free medium with 12 μM 7KCh. Fatty acids were tested at 0.1, 0.5, 1, 5 and 10 μM concentrations. The effects of the fatty acids against 7KCh-mediated inflammation and ER stress were examined by incubating cells in 1 μM fatty acids with either 8 μM 7KCh (24 hr for quantitative real-time PCR (qRT-PCR), 24 and 48 hr for immunoblot), or 6 μM 7KCh for 48 hr (for ELISA). Three individual experiments were performed for each treatment with quadruplicate measurements performed for each experiment in 24-well plates.
The levels of secreted VEGF, IL-6, IL-8, and TNF-α in conditioned medium of ARPE-19 cell cultures were measured 48 hr after treatments of 6 μM 7KCh and 1 μM fatty acids using the Quantkine ELISA kits from R&D systems (Minneapolis, Minn.). The protein levels were measured in triplicates. The ELISA results were quantified using an Envision multilable plate reader (PerkinElmer, Covina, Calif.) and presented in percentage relative to the vehicle-only control.

Question: For CCCCCCCCC1=C(CCCCCCCC(=O)O)C1 [sterculic acid, 8-(2-octacyclopropen-1-yl)octanoic acid], which “secreted IL-6 protein expression” value is on record?
Answer: 1.4 fold

Question: What about the “secreted IL-8 protein expression” value of the same compound?
Answer: 1.1 fold

Question: What about the “secreted VEGF protein expression” value of the same compound?
Answer: 1.1 fold
